Source: US20260234115A1, “LIPID COMPOUNDS, COMPOSITIONS, AND USES THEREOF” (Liberate Bio, Inc., priority 2023, published 2026)
Marks after values point to notes of the source that are not given here.

Legend:
mouse organs = assay: In vivo activity screening in mice: organ mean total flux (p/s) of luciferase activity after injection of F2 LNP pools (Table 6, FIG. 7A-7C); conditions: luciferase mRNA
In short: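 Luciferase output per organ is reported as mean total flux (p/s) from IVIS regions of interest. Organs were collected from perfused C57BL/6J mice and imaged 10-15 min after s.c. D-luciferin, 4-6 h after i.v. dosing. Dosing was 0.25-3 mg/kg luciferase mRNA in F2 LNP pools.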

[1] = Dynamic light scattering: LNP particle size and PDI; type: physicochemical; conditions: for PDI N/P:6 / Size (nm) N/P:6: LNP
In short: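 The LNPs were made by microfluidic mixing of the lipids in ethanol with mRNA in pH 4.0 citrate, then dialyzed into PBS pH 7.4. They were diluted in PBS pH 7.4, and particle size and PDI were measured by dynamic light scattering.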

[2] = Plate-based fluorescence (RiboGreen) assay: nucleic acid cargo content and encapsulation efficiency of LNPs; type: physicochemical; conditions: for EE (%) N/P:6: LNP
In short: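 LNPs made by microfluidic mixing of ethanolic lipids with mRNA in pH 4.0 citrate, dialyzed into PBS pH 7.4. Cargo quantified by RiboGreen fluorescence against a standard curve: Triton-lysed samples give total, TE-only samples give free cargo; encapsulation efficiency from their ratio.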

[3] = LNP compositions for Formulation F2 Study
[4] = LNP compositions for in vivo mouse study, four formulations (F1-F4) of the lipid compound pooled, or pools of four compounds (sixteen compositions)
[5] = LNP compositions for in vivo mouse study, four formulations (F1-F4) pooled, or pools of four compounds

## CCCCC/C=C\C/C=C\CCCCCCCCC(CCCCCCCC/C=C\C/C=C\CCCCC)OC(=O)CCCN(C)C [MC3, reference compound]
Mouse organs; Mouse 1, dose 0.3 mg/kg
  Organ Mean Total Flux Femur: 8.5 p/s (×10^6)
  Organ Mean Total Flux Heart: 2.8 p/s (×10^6)
  Organ Mean Total Flux Kidney: 1.9 p/s (×10^6)
  Organ Mean Total Flux Liver: 6896 p/s (×10^6)
  Organ Mean Total Flux Lung: 17.2 p/s (×10^6)
  Organ Mean Total Flux Muscle: 7.5 p/s (×10^6)
  Organ Mean Total Flux Pancreas: 2.6 p/s (×10^6)
  Organ Mean Total Flux Spleen: 22.3 p/s (×10^6)
Mouse organs; Mouse 2, dose 1.0 mg/kg
  Organ Mean Total Flux Femur: 9.9 p/s (×10^6)
  Organ Mean Total Flux Heart: 17.0 p/s (×10^6)
  Organ Mean Total Flux Kidney: 16.6 p/s (×10^6)
  Organ Mean Total Flux Liver: 15500 p/s (×10^6)
  Organ Mean Total Flux Lung: 60.5 p/s (×10^6)
  Organ Mean Total Flux Muscle: 16.6 p/s (×10^6)
  Organ Mean Total Flux Pancreas: 7.4 p/s (×10^6)
  Organ Mean Total Flux Spleen: 23.0 p/s (×10^6)
Mouse organs; Mouse 3, dose 1.0 mg/kg
  Organ Mean Total Flux Femur: 6.9 p/s (×10^6)
  Organ Mean Total Flux Heart: 8.5 p/s (×10^6)
  Organ Mean Total Flux Kidney: 7.3 p/s (×10^6)
  Organ Mean Total Flux Liver: 9707 p/s (×10^6)
  Organ Mean Total Flux Lung: 106.4 p/s (×10^6)
  Organ Mean Total Flux Muscle: 23.6 p/s (×10^6)
  Organ Mean Total Flux Pancreas: 2.7 p/s (×10^6)
  Organ Mean Total Flux Spleen: 22.8 p/s (×10^6)
Mouse organs; Mouse 5, dose 0.5 mg/kg
  Organ Mean Total Flux Femur: 4.8 p/s (×10^6)
  Organ Mean Total Flux Heart: 5.7 p/s (×10^6)
  Organ Mean Total Flux Kidney: 18.6 p/s (×10^6)
  Organ Mean Total Flux Liver: 5667 p/s (×10^6)
  Organ Mean Total Flux Lung: 34.5 p/s (×10^6)
  Organ Mean Total Flux Muscle: 10.0 p/s (×10^6)
  Organ Mean Total Flux Pancreas: 1.9 p/s (×10^6)
  Organ Mean Total Flux Spleen: 17.6 p/s (×10^6)
Mouse organs; Mouse 6, dose 0.5 mg/kg
  Organ Mean Total Flux Femur: 3.3 p/s (×10^6)
  Organ Mean Total Flux Heart: 5.2 p/s (×10^6)
  Organ Mean Total Flux Kidney: 3.9 p/s (×10^6)
  Organ Mean Total Flux Liver: 4796 p/s (×10^6)
  Organ Mean Total Flux Lung: 28.6 p/s (×10^6)
  Organ Mean Total Flux Muscle: 8.2 p/s (×10^6)
  Organ Mean Total Flux Pancreas: 3.6 p/s (×10^6)
  Organ Mean Total Flux Spleen: 11.7 p/s (×10^6)
Mouse organs; Mouse 9, dose 0.5 mg/kg
  Organ Mean Total Flux Femur: 3.8 p/s (×10^6)
  Organ Mean Total Flux Heart: 4.1 p/s (×10^6)
  Organ Mean Total Flux Kidney: 2.1 p/s (×10^6)
  Organ Mean Total Flux Liver: 3903 p/s (×10^6)
  Organ Mean Total Flux Lung: 12.7 p/s (×10^6)
  Organ Mean Total Flux Muscle: 5.6 p/s (×10^6)
  Organ Mean Total Flux Pancreas: 1.1 p/s (×10^6)
  Organ Mean Total Flux Spleen: 5.4 p/s (×10^6)
Mouse organs; Mouse 11, dose 0.5 mg/kg
  Organ Mean Total Flux Femur: 2.2 p/s (×10^6)
  Organ Mean Total Flux Heart: 2.9 p/s (×10^6)
  Organ Mean Total Flux Kidney: 1.0 p/s (×10^6)
  Organ Mean Total Flux Liver: 2603 p/s (×10^6)
  Organ Mean Total Flux Lung: 12.1 p/s (×10^6)
  Organ Mean Total Flux Muscle: 2.7 p/s (×10^6)
  Organ Mean Total Flux Pancreas: 0.7 p/s (×10^6)
  Organ Mean Total Flux Spleen: 4.0 p/s (×10^6)
Mouse organs; Mouse 12, dose 0.5 mg/kg
  Organ Mean Total Flux Femur: 5.8 p/s (×10^6)
  Organ Mean Total Flux Heart: 2.4 p/s (×10^6)
  Organ Mean Total Flux Kidney: 53.9 p/s (×10^6)
  Organ Mean Total Flux Liver: 2307 p/s (×10^6)
  Organ Mean Total Flux Lung: 13.7 p/s (×10^6)
  Organ Mean Total Flux Muscle: 4.1 p/s (×10^6)
  Organ Mean Total Flux Pancreas: 9.6 p/s (×10^6)
  Organ Mean Total Flux Spleen: 8.6 p/s (×10^6)
Mouse organs; Mouse 13, dose 0.5 mg/kg
  Organ Mean Total Flux Femur: 2.7 p/s (×10^6)
  Organ Mean Total Flux Heart: 5.0 p/s (×10^6)
  Organ Mean Total Flux Kidney: 0.9 p/s (×10^6)
  Organ Mean Total Flux Liver: 1767 p/s (×10^6)
  Organ Mean Total Flux Lung: 8.3 p/s (×10^6)
  Organ Mean Total Flux Muscle: 2.8 p/s (×10^6)
  Organ Mean Total Flux Pancreas: 0.8 p/s (×10^6)
  Organ Mean Total Flux Spleen: 5.7 p/s (×10^6)
Mouse organs; Mouse 14, dose 0.5 mg/kg
  Organ Mean Total Flux Femur: 2.2 p/s (×10^6)
  Organ Mean Total Flux Heart: 4.4 p/s (×10^6)
  Organ Mean Total Flux Kidney: 26.8 p/s (×10^6)
  Organ Mean Total Flux Liver: 2037 p/s (×10^6)
  Organ Mean Total Flux Lung: 19.3 p/s (×10^6)
  Organ Mean Total Flux Muscle: 5.7 p/s (×10^6)
  Organ Mean Total Flux Pancreas: 1.2 p/s (×10^6)
  Organ Mean Total Flux Spleen: 8.5 p/s (×10^6)
[1]; [3]
  PDI: 0.098
  Particle Size (nm): 87.8 nm
[2]; [3]
  EE %: 98%

## CCCCC/C=C\CCOC(=O)CCCCCCC(=O)OCC(COC(=O)CCCCCCC(=O)OCC/C=C\CCCCC)(COC(=O)CCC(CCCCCC)OC(=O)NCCN1CCCC1)COC(=O)CCC(OCCCCCCCC)OCCCCCCCC (centres unmarked) [Compound 12, O8-[2-(4,4-dioctoxybutanoyloxymethyl)-2-[[8-[(Z)-non-3-enoxy]-8-oxo-octanoyl]oxymethyl]-3-[4-(2-pyrrolidin-1-ylethylcarbamoyloxy)decanoyloxy]propyl]O1-[(Z)-non-3-enyl]octanedioate]
Mouse organs; Mouse 1, dose 0.3 mg/kg
  Organ Mean Total Flux Femur: 1.3 p/s (×10^6)
  Organ Mean Total Flux Heart: 0.1 p/s (×10^6)
  Organ Mean Total Flux Kidney: 0.2 p/s (×10^6)
  Organ Mean Total Flux Liver: 61.8 p/s (×10^6)
  Organ Mean Total Flux Lung: 0.7 p/s (×10^6)
  Organ Mean Total Flux Muscle: 2.7 p/s (×10^6)
  Organ Mean Total Flux Pancreas: 0.2 p/s (×10^6)
  Organ Mean Total Flux Spleen: 0.7 p/s (×10^6)
[1]; [4]
  Particle Size (nm): 83.7 nm
[1]; [5]
  PDI: 0.119
[1]; Formulation F1, N/P 6
  PDI N/P:6: 0.16
  Size (nm) N/P:6: 81 ± 9 nm
[1]; Formulation F2, N/P 6
  PDI N/P:6: 0.07
  Size (nm) N/P:6: 84 ± 5 nm
[1]; Formulation F3, N/P 6
  PDI N/P:6: 0.04
  Size (nm) N/P:6: 93 ± 1 nm
[1]; Formulation F4, N/P 6
  PDI N/P:6: 0.09
  Size (nm) N/P:6: 63 ± 0 nm
[2]; [5]
  EE %: 97%
  mRNA Content: 91 µg/mL
[2]; Formulation F1, N/P 6
  EE (%) N/P:6: 98%
[2]; Formulation F2, N/P 6
  EE (%) N/P:6: 98%
[2]; Formulation F3, N/P 6
  EE (%) N/P:6: 97%
[2]; Formulation F4, N/P 6
  EE (%) N/P:6: 98%

## CCCCCCCC/C=C\CCCCCCCC(=O)OCC(COC(=O)CCCCCCC/C=C\CCCCCCCC)(COC(=O)CCC(CCCCCC)OC(=O)NCCN1CCCC1)COC(=O)CC12CC3CC(CC(C3)C1)C2 (centres unmarked) [Compound 3, [2-[[2-(1-adamantyl)acetyl]oxymethyl]-2-[[(Z)-octadec-9-enoyl]oxymethyl]-3-[4-(2-pyrrolidin-1ylethylcarbamoyloxy)decanoyloxy]propyl](Z)-octadec-9-enoate]
Mouse organs; Mouse 1, dose 0.3 mg/kg
  Organ Mean Total Flux Femur: 1.3 p/s (×10^6)
  Organ Mean Total Flux Heart: 0.1 p/s (×10^6)
  Organ Mean Total Flux Kidney: 0.1 p/s (×10^6)
  Organ Mean Total Flux Liver: 29.1 p/s (×10^6)
  Organ Mean Total Flux Lung: 0.7 p/s (×10^6)
  Organ Mean Total Flux Muscle: 0.5 p/s (×10^6)
  Organ Mean Total Flux Pancreas: 0.2 p/s (×10^6)
  Organ Mean Total Flux Spleen: 1.4 p/s (×10^6)
[1]; [4]
  Particle Size (nm): 89.1 nm
[1]; [5]
  PDI: 0.08
[1]; Formulation F1, N/P 6
  PDI N/P:6: 0.09
  Size (nm) N/P:6: 74 ± 1 nm
[1]; Formulation F2, N/P 6
  PDI N/P:6: 0.01
  Size (nm) N/P:6: 92 ± 1 nm
[1]; Formulation F3, N/P 6
  PDI N/P:6: 0.07
  Size (nm) N/P:6: 102 ± 1 nm
[1]; Formulation F4, N/P 6
  PDI N/P:6: 0.14
  Size (nm) N/P:6: 73 ± 1 nm
[2]; [5]
  EE %: 96%
  mRNA Content: 83 µg/mL
[2]; Formulation F1, N/P 6
  EE (%) N/P:6: 98%
[2]; Formulation F2, N/P 6
  EE (%) N/P:6: 99%
[2]; Formulation F3, N/P 6
  EE (%) N/P:6: 98%
[2]; Formulation F4, N/P 6
  EE (%) N/P:6: 98%
